Experiments:
Type in all cases: cell-based
YES1 = biological target: T1, YES1 (Homo sapiens, UniProt P07947); experiment: YES1-GFP protein abundance flow cytometry assay in HEK293A; conditions: for YES1 Amax: % protein remaining at the concentration of maximum degradation; for DC50: HEK293A YES1-GFP sensor cells, 24 h
T1 construct: EGFP (after a Leu that replaces the STOP codon); expressed in transfected cells; host or cells: HEK293A (Invitrogen R70507), lentiviral transduction
Experimental: (§1) Degradation of BTK, CSK, ABL2, EPHA4 and YES1 was measured in HEK293A cells (Invitrogen R70507) expressing either BTK-GFP and RFP, CSK-GFP and mCherry, GFP-ABL2 and mCherry, EPHA4-GFP and mCherry, or YES1-GFP and mCherry from a stably integrated bicistronic BTK-GFP-iresRFP, CSK-GFP-CHYSEL-mCherry, GFP-ABL2-CHYSEL-mCherry, EPHA4-GFP-CHYSEL-mCherry, or YES1-GFP-CHYSEL-mCherry construct, respectively. Reduction of the GFP signal measured by flow cytometry served as readout for BTK, CSK, ABL2, EPHA4 and YES1 degradation after degrader treatment.
(§2) 293A BTK-GFP-Ires-RFP, CSK-GFP-CHYSEL-mCherry, GFP-ABL2-CHYSEL-mCherry, EPHA4-GFP-CHYSEL-mCherry, or YES1-GFP-CHYSEL-mCherry sensor cells were generated by lentiviral vector transduction using the pLenti6-BTK-GFP-Ires-RFP, pLenti6-mCherryCHYSEL-EGFP-ABL2, pLenti6-CSK-GFP-CHYSEL-mCherry, pLenti6-EPHA4-GFP-CHYSEL-mCherry or pLenti6-YES1-GFP-CHYSEL-mCherry sensor construct described before. Lentiviral particles were produced in HEK293FT cells (Invitrogen R70007) by co-transfection of 500 ng pLenti6-BTK-GFP-Ires-RFP or pLenti6-IKZF3-GFP-Ires-RFP, 500 ng delta8.71 and 200 ng pVSVG diluted in 100 μL OptiMEM serum free medium (Invitrogen #11058-021) that was mixed after 5 min preincubation with 3 μL of Lipofectamine2000 (Invitrogen #11668-019) in 97 μL OptiMEM serum free medium. The mix was incubated for another 20 min at RT and then added on 1 mL of a freshly prepared suspension of HEK293FT cells in a well of a 6-well plate (concentration 1.2×10^6 cells/mL). 1 day after transfection, the medium was replaced with 1.5 mL of complete growth medium (DMEM high Glucose+10% FCS+1% L-Glutamine+1% NEAA+1% NaPyr.). 48 h post transfection supernatant containing viral transducing particles was collected and frozen at −80° C.
(§3) 2 days before transduction with viral particles 1×10^5 HEK293A cells (Invitrogen R70507) were seeded in 2 mL growth medium in a well of a 6-well plate. Infection was performed with 90 μL of collected supernatant containing viral transducing particles in 1 mL medium including 8 µg/mL polybrene. 24 h post infection, stably transfected cells were selected with blasticidin at a concentration of 8 μg/mL referred to as stable HEK293A sensor cells.
(§4) Stable HEK293A sensor cells were maintained in complete growth medium (DMEM high Glucose+10% FCS+1% L-Glutamine+1% NEAA+1% NaPyr.) with passaging performed twice per week. […] GFP and RFP are read in the channels called FITC and PE, respectively.
(§5) Concentration response curves plotting relative reduction of the GFP signal (measured by flow cytometry) versus 10 compound concentrations (starting concentration 10 μM, 3 fold dilution steps) of the compounds allowed generation of DC50 values.

ABL2 = biological target: T2, ABL2 (Homo sapiens, UniProt P42684); experiment: GFP-ABL2 protein abundance flow cytometry assay in HEK293A; conditions: for ABL2 Amax: % protein remaining at the concentration of maximum degradation; for DC50: HEK293A GFP-ABL2 sensor cells, 24 h
T2 construct: expressed in transfected cells; host or cells: HEK293A (Invitrogen R70507), lentiviral transduction
T2 sequence (P42684 whole entry, looked up): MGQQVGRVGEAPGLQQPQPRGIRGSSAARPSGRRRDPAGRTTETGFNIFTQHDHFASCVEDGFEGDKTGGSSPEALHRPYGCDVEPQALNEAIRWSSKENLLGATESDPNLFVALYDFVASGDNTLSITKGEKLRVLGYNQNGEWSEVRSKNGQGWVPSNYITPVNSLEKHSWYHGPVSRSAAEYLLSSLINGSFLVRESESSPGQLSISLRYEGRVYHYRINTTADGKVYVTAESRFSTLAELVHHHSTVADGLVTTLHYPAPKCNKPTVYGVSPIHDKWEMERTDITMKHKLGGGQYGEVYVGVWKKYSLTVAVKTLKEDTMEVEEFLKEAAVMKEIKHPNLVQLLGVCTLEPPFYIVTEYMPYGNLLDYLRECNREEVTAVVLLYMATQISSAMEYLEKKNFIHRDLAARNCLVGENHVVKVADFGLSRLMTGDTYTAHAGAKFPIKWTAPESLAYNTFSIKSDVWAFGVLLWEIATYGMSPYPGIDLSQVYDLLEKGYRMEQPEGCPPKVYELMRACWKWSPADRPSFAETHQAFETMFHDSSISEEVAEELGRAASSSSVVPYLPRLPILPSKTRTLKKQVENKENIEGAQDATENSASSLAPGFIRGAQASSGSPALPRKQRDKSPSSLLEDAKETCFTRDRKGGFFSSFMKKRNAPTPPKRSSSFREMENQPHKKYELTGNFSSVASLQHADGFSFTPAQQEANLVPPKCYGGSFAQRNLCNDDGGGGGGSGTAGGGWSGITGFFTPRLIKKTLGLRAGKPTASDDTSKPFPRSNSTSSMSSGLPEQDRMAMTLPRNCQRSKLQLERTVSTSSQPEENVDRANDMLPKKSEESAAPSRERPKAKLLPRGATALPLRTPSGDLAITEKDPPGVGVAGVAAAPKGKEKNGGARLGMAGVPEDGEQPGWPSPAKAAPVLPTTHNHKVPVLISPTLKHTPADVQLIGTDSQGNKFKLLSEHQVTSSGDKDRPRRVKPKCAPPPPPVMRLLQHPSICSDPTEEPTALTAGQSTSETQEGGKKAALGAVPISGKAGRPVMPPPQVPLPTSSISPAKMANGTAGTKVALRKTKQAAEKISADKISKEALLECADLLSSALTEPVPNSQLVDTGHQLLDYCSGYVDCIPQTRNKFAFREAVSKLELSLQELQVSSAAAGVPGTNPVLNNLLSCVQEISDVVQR
Experimental: as §1, §2, §3, §4, §5

BTK = biological target: T3, BTK (Homo sapiens, UniProt Q06187); experiment: BTK-GFP protein abundance flow cytometry assay in HEK293A; conditions: 24 h; for BTK degradation Amax: % protein remaining at the concentration at which maximum degradation is seen, HEK293A; for DC50: concentration at which 50% maximal degradation was observed, HEK293A BTK-GFP sensor cells
T3 construct: the BTK open reading frame (ORF) was first shuttled from a pcDNA-DEST40-BTK vector; expressed in transfected cells; host or cells: HEK293A (Invitrogen R70507), lentiviral transduction, blasticidin selection
T3 sequence (Q06187 whole entry): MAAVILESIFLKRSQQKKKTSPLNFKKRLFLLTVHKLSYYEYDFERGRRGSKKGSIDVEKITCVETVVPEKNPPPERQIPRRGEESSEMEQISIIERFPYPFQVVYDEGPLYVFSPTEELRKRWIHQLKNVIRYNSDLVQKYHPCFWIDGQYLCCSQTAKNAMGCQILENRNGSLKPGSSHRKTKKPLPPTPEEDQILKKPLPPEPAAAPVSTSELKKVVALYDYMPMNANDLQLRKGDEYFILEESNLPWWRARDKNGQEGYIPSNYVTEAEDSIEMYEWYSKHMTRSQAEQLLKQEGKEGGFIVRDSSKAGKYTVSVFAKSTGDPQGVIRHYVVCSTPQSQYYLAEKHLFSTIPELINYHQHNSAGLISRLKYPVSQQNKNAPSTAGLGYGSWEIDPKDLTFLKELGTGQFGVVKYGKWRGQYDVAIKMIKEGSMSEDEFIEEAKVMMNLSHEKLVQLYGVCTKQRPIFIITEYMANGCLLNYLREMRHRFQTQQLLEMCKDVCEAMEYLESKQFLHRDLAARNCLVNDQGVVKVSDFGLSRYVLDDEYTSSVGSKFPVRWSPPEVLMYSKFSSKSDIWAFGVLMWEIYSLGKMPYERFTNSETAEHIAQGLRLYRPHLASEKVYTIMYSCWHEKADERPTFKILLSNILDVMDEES
Method in brief: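 HEK293A cells stably expressing bicistronic BTK-GFP-iresRFP were treated 24 h at 37° C with 10-point 1:3 dilutions from 10 μM, DMSO at 0.1%. GFP was read by flow cytometry as median of 5,000 single cells, scaled between RFP-only cells (0%) and DMSO controls (100%). DC50 = concentration at 50% degradation; Amax = % protein remaining at maximal degradation.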

EPHA4 = biological target: T4, EPHA4 (Homo sapiens, UniProt P54764); experiment: EPHA4-GFP protein abundance flow cytometry assay in HEK293A; conditions: for EPHA4 Amax: % protein remaining at the concentration of maximum degradation; for DC50: HEK293A EPHA4-GFP sensor cells, 24 h
T4 construct: EGFP (after a Leu that replaces the STOP codon); expressed in transfected cells; host or cells: HEK293A (Invitrogen R70507), lentiviral transduction
T4 sequence (P54764 20-986, species assumed): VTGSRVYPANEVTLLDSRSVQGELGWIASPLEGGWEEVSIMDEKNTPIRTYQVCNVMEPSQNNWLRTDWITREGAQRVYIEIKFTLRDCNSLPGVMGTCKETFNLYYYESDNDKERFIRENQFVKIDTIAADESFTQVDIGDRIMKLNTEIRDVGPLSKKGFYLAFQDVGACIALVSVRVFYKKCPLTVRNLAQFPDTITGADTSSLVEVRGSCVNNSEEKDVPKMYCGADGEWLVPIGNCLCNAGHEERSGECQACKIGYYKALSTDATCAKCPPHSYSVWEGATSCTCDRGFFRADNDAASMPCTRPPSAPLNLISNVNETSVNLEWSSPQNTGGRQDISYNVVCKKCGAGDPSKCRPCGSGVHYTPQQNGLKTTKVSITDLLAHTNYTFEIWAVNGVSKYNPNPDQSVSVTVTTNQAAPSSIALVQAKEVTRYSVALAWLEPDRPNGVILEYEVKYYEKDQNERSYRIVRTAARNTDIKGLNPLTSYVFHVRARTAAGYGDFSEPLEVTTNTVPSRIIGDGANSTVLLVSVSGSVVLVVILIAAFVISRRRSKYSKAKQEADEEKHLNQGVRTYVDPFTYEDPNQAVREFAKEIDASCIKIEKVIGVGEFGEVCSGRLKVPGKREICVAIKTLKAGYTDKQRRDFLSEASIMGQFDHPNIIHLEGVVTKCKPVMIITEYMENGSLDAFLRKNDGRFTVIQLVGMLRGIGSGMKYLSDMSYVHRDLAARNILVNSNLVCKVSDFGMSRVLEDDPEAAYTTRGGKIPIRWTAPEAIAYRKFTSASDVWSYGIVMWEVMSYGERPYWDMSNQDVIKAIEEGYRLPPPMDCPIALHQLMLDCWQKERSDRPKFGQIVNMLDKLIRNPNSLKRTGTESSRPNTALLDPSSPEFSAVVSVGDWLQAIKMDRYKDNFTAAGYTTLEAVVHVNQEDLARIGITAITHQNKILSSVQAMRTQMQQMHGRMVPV
Experimental: as §1, §2, §3, §4, §5

T1 sequence (P07947 whole entry, looked up): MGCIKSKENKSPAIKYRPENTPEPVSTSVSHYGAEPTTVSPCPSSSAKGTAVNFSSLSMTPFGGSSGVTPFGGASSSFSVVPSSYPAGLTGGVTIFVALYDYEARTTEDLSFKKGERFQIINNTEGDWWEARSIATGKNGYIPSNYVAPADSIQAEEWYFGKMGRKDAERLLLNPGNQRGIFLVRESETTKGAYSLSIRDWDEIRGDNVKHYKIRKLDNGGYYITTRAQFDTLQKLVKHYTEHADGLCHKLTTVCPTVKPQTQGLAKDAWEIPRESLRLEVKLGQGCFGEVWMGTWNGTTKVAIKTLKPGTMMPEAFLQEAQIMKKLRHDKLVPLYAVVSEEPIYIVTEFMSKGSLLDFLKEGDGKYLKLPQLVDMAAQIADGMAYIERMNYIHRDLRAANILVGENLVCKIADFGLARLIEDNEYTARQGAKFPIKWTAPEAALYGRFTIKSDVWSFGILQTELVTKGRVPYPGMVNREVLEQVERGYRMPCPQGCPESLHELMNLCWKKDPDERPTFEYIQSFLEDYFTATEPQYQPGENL

SMILES | YES1 Amax (YES1) [%] | DC50 (YES1) [nM] | ABL2 Amax (ABL2) [%] | DC50 (ABL2) [nM] | BTK degradation Amax (BTK) [%] | DC50 (BTK) [nM] | EPHA4 Amax (EPHA4) [%] | DC50 (EPHA4) [nM]
COc1ccc(C(=O)N2CCC3(CCN(C(=O)CCCCCCCN4CCN(c5cc(Nc6ncc(C(=O)Nc7c(C)cccc7Cl)s6)nc(C)n5)CC4)CC3)CC2)cc1N1CCC(=O)NC1=O [compound 06, N-(2-chloro-6-methylphenyl)-2-((6-(4-(8-(9-(3-(2,4-dioxotetrahydropyrimidin-1(2H)-yl)-4-methoxybenzoyl)-3,9-diazaspiro[5.5]undecan-3-yl)-8-oxooctyl)piperazin-1-yl)-2-methylpyrimidin-4-yl)amino)thiazole-5-carboxamide] | 4 | 9 | 22 | 2 | 2.1 | 4.7 | 9 | 4
COc1ccc(C(=O)N2CCC3(CCN(C(=O)CN4CCN(c5cc(Nc6ncc(C(=O)Nc7c(C)cccc7Cl)s6)nc(C)n5)CC4)CC3)CC2)cc1N1CCC(=O)NC1=O [compound 07, N-(2-chloro-6-methylphenyl)-2-((6-(4-(2-(9-(3-(2,4-dioxotetrahydropyrimidin-1(2H)-yl)-4-methoxybenzoyl)-3,9-diazaspiro[5.5]undecan-3-yl)-2-oxoethyl)piperazin-1-yl)-2-methylpyrimidin-4-yl)amino)thiazole-5-carboxamide] | 11 | 124 | 27 | 63 | 0.9 | 9.3 | 9 | 83

— patent US20220387602A1, “BIFUNCTIONAL DEGRADERS AND THEIR METHODS OF USE” (NOVARTIS AG, priority 2019, published 2022)
